Source: patent US7176185B2, “Short peptide carrier system for cellular delivery of agent” (TSRL, Inc., priority 2003, dated 2007)

Experiments:
[1] = target: T1, hpept1 dipeptide transporter (Homo sapiens, UniProt P46059); assay: Inhibition of 3H-Gly-Sar uptake in DC5 cell line (Ki determination); assay type: cell-based; settings: 50 uM 3H-Gly-Sar, 10 min, 37° C., unit inferred, mM, read-out: TSRL - Ki
T1 construct: expressed in transfected cells; host or cells: DC5 = human medulloblastoma cell line Dpar transfected with a eukaryotic expression plasmid holding the hPept1 gene
T1 sequence (P46059 1-708): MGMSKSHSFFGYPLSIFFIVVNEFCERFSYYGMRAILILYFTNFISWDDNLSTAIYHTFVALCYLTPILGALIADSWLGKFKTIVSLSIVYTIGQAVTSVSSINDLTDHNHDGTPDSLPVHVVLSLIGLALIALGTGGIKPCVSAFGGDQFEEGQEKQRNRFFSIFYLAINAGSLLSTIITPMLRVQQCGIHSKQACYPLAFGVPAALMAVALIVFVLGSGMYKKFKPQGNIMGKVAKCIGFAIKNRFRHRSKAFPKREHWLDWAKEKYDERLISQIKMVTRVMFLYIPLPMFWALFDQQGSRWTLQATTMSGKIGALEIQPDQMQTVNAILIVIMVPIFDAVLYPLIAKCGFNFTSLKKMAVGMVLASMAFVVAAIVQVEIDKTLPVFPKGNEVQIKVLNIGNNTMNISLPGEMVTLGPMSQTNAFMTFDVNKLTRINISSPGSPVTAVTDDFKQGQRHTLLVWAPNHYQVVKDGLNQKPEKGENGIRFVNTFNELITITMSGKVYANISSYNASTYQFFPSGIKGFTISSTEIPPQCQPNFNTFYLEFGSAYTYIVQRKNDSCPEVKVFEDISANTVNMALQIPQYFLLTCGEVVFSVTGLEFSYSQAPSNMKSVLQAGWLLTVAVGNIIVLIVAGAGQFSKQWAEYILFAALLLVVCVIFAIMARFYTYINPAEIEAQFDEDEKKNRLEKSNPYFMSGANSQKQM
Description: The developed system functions as an initial screen for interaction with the dipeptide transporter by measuring the ability of a given test compound to inhibit the uptake of the marker dipeptide ^3H-Gly-Sar. Using this system in a 96-well format, one can rapidly screen compounds for their ability to bind to the dipeptide transporter by measuring the inhibition constant (Ki) of the compound against Gly-Sar uptake. In this assay, a positive result indicates binding, but not necessarily transport. Positive results are assessed for actual transport in conventional uptake assays.
The inhibitory Ki for a given compound is determined in DC5 cell line using the radioactive substrate 3H-glycine-sarcosine (GS). DC5 cells were plated (12,000 cells/well) in 96-well tissue culture plates (Falcon) and allowed to grow for 2 days. The cells were washed once with 200 ul of uptake buffer and aspirated. The plates were cooled to 4° C. and 25 ul of uptake buffer containing 50 uM Gly-Sar (0.5 uCi/ml) was added. The uptake buffer also contained the test β-lactam antibiotic, Cefaclor, over a range of concentrations. Uptake was initiated by placing the plate in a shaker water bath (37° C.) and terminated at 10 min by rapid washing with multiple changes of 4° C. PBS (Sigma). The radioactive peptide was extracted from the cell layer with 200 ul of methanol:water (1:1) and counted in 4 ml of CytoScint ES™ scintillation cocktail (ICN). Non-linear regression analysis of the data was used to determine the IC50 using the solver function in Microsoft Excel spreadsheets.

[2] = literature value (Bretschneider et al. 1999); 'parenteral' marks drugs given parenterally; cited from earlier work
[3] = target: T2, DC5 cell line overexpressing HPEPT1 (Homo sapiens, UniProt P46059); assay: LALA fluorescent uptake in DC5 cells; assay type: cell-based; settings: transport buffer, 30 minutes, fluorescence
T2 construct: expressed in transfected cells; host or cells: DC5 = human medulloblastoma cell line Dpar transfected with a eukaryotic expression plasmid holding the hPept1 gene
T2 sequence (P46059 1-708): T1 sequence (P46059 1-708)
Method: (§1) FIG. 6 is a graph showing the uptake of LALA in DC5 and Dpar as a function of LALA concentration. DC5 and Dpar cells are incubated in transport buffer and the indicated concentrations of LALA added ? and (¦), respectively. These experiments are repeated in the presence of 20 mM Gly-Pro for DC5 ? and Dpar (?). After 30 minutes, the cells are washed and processed for fluorescent determination.
(§2) […] and not Dpar specifically uptake LALA. DC5 and Dpar cells are incubated in transport buffer and the indicated concentrations of LALA added ? and (¦), respectively. These experiments are repeated in the presence of 20 mM Gly-Pro for DC5 (⋄) and Dpar (?). After 30 minutes, the cells are washed and processed for fluorescent determination. […] After 30 minutes the cells are washed and the fluorescence measured in the cells. […] Because the marker probe is fluorescent, the system is amenable to more rapid throughput, through the use of automated fluorescent plate readers. Fluorescence imagining of LALA in DC5 cells is shown in FIG. 8, where cells on a polylysine coated slide are incubated in the transport buffer with 50 μM LALA in the presence (right image) or absence (left image) the hPepT1 competitive inhibitor Gly-Pro (20 mM) for 20 minutes at room temperature. […]

[4] = tested on: Dpar cells; assay: LALA fluorescent uptake in parental Dpar cells; assay type: cell-based, human; settings: 30 minutes, fluorescence
Method: as §1
FIG. 7 is a bar graph showing specificity of LALA uptake. 25 μM of LALA is incubated in the presence 20 mM Gly-Sar ? 20 mM Gly-Pro ? 40 mM phenylalanine ? and 40 mM proline ? in either the DC5 or the Dpar, cell line. After 30 minutes the cells are washed and the fluorescence measured in the cells. […] There is minimal LALA uptake in the parental line Dpar.
as §2, with “LALA.” for “LALA. DC5 and Dpar cells are incubated in transport buffer and the indicated concentrations of LALA added ? and (¦), respectively. These experiments are repeated in the presence of 20 mM Gly-Pro for DC5 (⋄) and Dpar (?). After 30 minutes, the cells are washed and processed for fluorescent determination.”

[5] = target: T3, hPepT1 (Homo sapiens, UniProt P46059); assay: Inhibition of LALA uptake into DC5 cells by competitive substrates; assay type: cell-based; settings: 30 minutes; for Inhibition of LALA uptake (FIG. 7, specificity): 25 μM LALA, 20 mM dipeptide or 40 mM amino acid
T3 construct: expressed in transfected cells; host or cells: DC5 = human medulloblastoma cell line Dpar transfected with a eukaryotic expression plasmid holding the hPept1 gene
T3 sequence (P46059 1-708): T1 sequence (P46059 1-708)
Method: After 30 minutes the cells are washed and the fluorescence measured in the cells.
DC5 and Dpar cells are incubated in transport buffer and the indicated concentrations of LALA added ? and (¦), respectively. These experiments are repeated in the presence of 20 mM Gly-Pro for DC5 (⋄) and Dpar (?). After 30 minutes, the cells are washed and processed for fluorescent determination. […] After 30 minutes the cells are washed and the fluorescence measured in the cells. […] Fluorescence imagining of LALA in DC5 cells is shown in FIG. 8, where cells on a polylysine coated slide are incubated in the transport buffer with 50 μM LALA in the presence (right image) or absence (left image) the hPepT1 competitive inhibitor Gly-Pro (20 mM) for 20 minutes at room temperature. Cells are washed with cold PBS and viewed with an inverted microscope and imaged with a digital camera, with the images being at the same magnification and exposure time.

| Ki [1] [mM] | SMILES | Bioavailability [2] | other results |
| --- | --- | --- | --- |
| 2.7 | CC1=C(C(=O)O)N2C(=O)[C@@H](NC(=O)[C@H](N)c3ccc(O)cc3)[C@H]2SC1 [Cefadroxil] | 100 |  |
| 5.39 | N[C@@H](C(=O)N[C@@H]1C(=O)N2C(C(=O)O)=C(Cl)CS[C@H]12)c1ccccc1 [Cefaclor] | 100 |  |
|  | Cc1c(CC(=O)NCCCCC(NC(=O)C(C)N)C(=O)O)c(=O)oc2cc(N)ccc12 [LALA, L-Ala-Lys-Nε-AMCA] |  | LALA uptake in DC5 [3]: specifically taken up; LALA uptake in parental line Dpar [4]: minimal |
| > 20 | CO/N=C(\C(=O)N[C@@H]1C(=O)N2C(C(=O)O)=C(CSc3nc(=O)c(=O)[nH]n3C)CS[C@H]12)c1csc(N)n1 [Ceftriaxon] | <5 parenteral |  |
| 23.2 | CO/N=C(\C(=O)N[C@@H]1C(=O)N2C(C(=O)O)=C(COC(N)=O)CS[C@H]12)c1ccco1 [Cefuroxime] | <1 parenteral |  |
|  | N[C@@H](Cc1ccccc1)C(=O)O [phenylalanine] |  | Inhibition of LALA uptake (FIG. 7, specificity) [5]: not by amino acids |
|  | NCC(=O)O.O=C(O)[C@@H]1CCCN1 [Gly-Pro, Glycine-Proline] |  | Inhibition of LALA uptake (FIG. 7, specificity) [5]: strongly inhibited; Inhibition of LALA uptake (FIGS. 5 and 6) ([5]; 20 mM Gly-Pro, range of LALA concentrations): strongly inhibited |
| 16.4 | Cn1nnnc1SCC1=C(C(=O)O)N2C(=O)[C@@H](NC(=O)[C@H](O)c3ccccc3)[C@H]2SC1 [Cefamandole] | <1 parenteral |  |
| 11.1 | CC(=O)OCC1=C(C(=O)O)N2C(=O)[C@@H](NC(=O)Cc3cccs3)[C@H]2SC1 [Cephalothin] | <5 parenteral |  |
| 7.02 | CC1=C(C(=O)O)N2C(=O)[C@@H](NC(=O)[C@H](N)C3=CCC=CC3)[C@H]2SC1 [Cephradine] | 100 |  |
|  | O=C(O)[C@@H]1CCCN1 [proline] |  | Inhibition of LALA uptake (FIG. 7, specificity) [5]: not by amino acids |
